Here are results for two compounds from patent US20260035369A1, “VINCAMINE DERIVATIVES, PREPARATION METHOD THEREFOR, AND USE THEREOF” (SOUTHWEST UNIVERSITY, priority 2023, published 2026).

Molecules are shown by their SMILES.

In this data set the test system is bEnd.3 cells. The data set is described as follows: Cellular ROS levels (DCFH-DA) by single cell analyzer. It counts as cell-based. The conditions noted are these: 2 hours, FIG. 10. The method, then: (10) The effect of lipid nanoparticles formed from the vincamine derivative (compound 2 (A5-B2-C6) as an example) on cellular ROS levels was detected using a single cell analyzer:
To detect cellular oxidative stress and intracellular reactive oxygen species (ROS) levels, a dichlorodihydrofluorescein diacetate (DCFH-DA) reactive oxygen species assay kit was used to detect the green fluorescence signal of ROS. bEnd.3 cells were seeded in cell culture dishes (50000 cells per dish) and cultured in 1 mL of culture medium for 12 hours. The culture medium in the wells was discarded and replaced with fresh complete medium. Lipid nanoparticles formed from the vincamine derivative (compound 2 (A5-B2-C6)) were added to the cells, and the cells were incubated in the dark at 37° C. in a 5% CO2 atmosphere for 2 hours. The cells in each group were incubated in PBS buffer containing […] DCFH-DA at 37° C. for 30 min. The cells were then washed three times in PBS buffer solution containing 0.1% BSA and fixed on glass slides. ROS levels were detected at the single-cell level using a fiber optic probe with a tip of approximately […]. The tip was inserted into the cells fixed in PBS, and photon counts were continuously detected and calculated within 150 s.

On to `CCCCCCCC/C=C\CCCCCCCC(=O)OCC(C[N+](C)(C)C)OC(=O)CCCCCCC/C=C\CCCCCCCC` (centres unmarked) [DOTAP], for which the “cellular ROS levels” value is “high ROS levels”. As for `CCCCC/C=C\C/C=C\CCCCCCCCC(CCCCCCCC/C=C\C/C=C\CCCCC)OC(=O)CCCN(C)C` [Dlin-MC3-DMA], the entry is “high ROS levels”.
